Laboratory results from US20230076733A1, “Combination Therapy” (AGENCY FOR SCIENCE, TECHNOLOGY AND RESEARCH, priority 2020, published 2023).
“And” between values parts separate entries of the source, which are not always exact repeats. Identical values can stand only once.

Columns and labels:
Assay type in all cases: cell-based
TFK-1 cells = assay: soft agar colony formation assay, TFK-1 cells; conditions: for Colony count: duplicate wells; for IC50: TFK-1 cells, pre-determined by dose-response assay
Protocol: (§1) The IC50 and EC50 values for each combination partner (a) and (b) with the specific cell lines are determined from the response plot. A dose-response assay for each combination partner and the combination at different concentrations based on the IC50 values of each combination partner was performed. Computed EC50-EC95 values were then generated by a software (as disclosed herein) based on the drug concentration and the respective colony growth numbers.
(§2) 6. Cell lines used and number of cells seeded per well
(§3) (1) Base Layer—0.6% Agar per 300 μL per well.
(§4) Microwave the agar for 1-2 min so that it is completely melted. Add 5.4 ml of the melted agar into 21.6 ml of pre-warmed media (All media and agar preparation is made in excess for 2.5 plates). Aliquot 300 μl of the suspension into each well, avoiding the first and last columns of the plates. Fill the first and last columns of wells with 500 μl of sterile water or phosphate buffered saline. Incubate the plates in 37° C. incubator for 45 min-1 hr to allow agar to solidify.
(§5) (2) Middle Layer— 0.3% Agar plus corresponding number of cells per well
(§6) Trypsinize the adherent cells and suspend them in 5 ml of media. Determine the number of cells in the suspension and calculate the volume of cell suspension required for seeding. Mix the agar and media together first, excluding the volume of cell suspension. Add the cell suspension last into the mixture. Mix well and aliquot 250 μl into each well containing the base layer. Incubate the plates in a 37° C. incubator for 1-1.5 hrs to allow the agar to solidify.
(§7) Prepare the required concentration of compounds based on the IC50 values of each drug.
(§8) (Pre-determine the IC50 values for each drug with the corresponding cell-line using a dose-response assay)
(§9) Row A& B: Aliquot 250 μl of diluted Drug A per well
(§10) Row C&D: Aliquot 250 μl of diluted Drug B per well
(§11) Row E& F: Aliquot 250 μl of diluted Drug A and B mixed at 1:1 ratio for each well
(§12) Assay Results Analysis Method • 1. Score the colonies after 2 to 3 weeks depending on the colony forming status for different cell line. • 2. Before scoring the colonies, add 35 μl MTT (5 mg/ml) to the wells with cells and incubate at 37° C. for 2-3 hrs depending on the intensity of colour development. • 3. Once the colonies are stained, count the total number of colonies formed using the Oxford Optronix GelCount® instrument. • 4. Average the total number of colonies obtained for each drug dose point and represent it as a fraction over the control. This represents the fraction of colony growth. […] Incorporate the fraction of inhibition and the corresponding dose values into the Chou Talalay Software available online (http://www.combosyn.com/) to obtain the combination index values. • 6. The combination index values will give an indication as to whether the combined drugs are synergistic, antagonistic or additive in the treated cells, as shown in Table 2 below.
FIG. 10 illustrates a dose-response assay plate containing TFK-1 cells (Test 1) after testing compounds at different concentrations based on the IC50 values of each compound. TFK-1 is a cell line established from cholangiocarcinoma (bile duct adenocarcinoma).

HPAF-II cells = assay: soft agar colony formation assay, HPAF-II cells; conditions: for Colony count: HPAF-II, duplicate wells
Protocol: as §1, §2, §3, §4, §5, §6, §7, §8, §9, §10, §11, §12
FIG. 4 illustrates of a dose-response assay plate containing HPAF-II cells (Test 1) after testing compounds at different concentrations based on the IC50 values of each compound. HPAF-II is a cell line established from pancreatic ductal adenocarcinoma (pancreatic cancer).

CFPAC-1 cells = assay: soft agar colony formation assay, CFPAC-1 cells; conditions: for Colony count: duplicate wells; for IC50: CFPAC-1 cells, pre-determined by dose-response assay
Protocol: as §1, §2, §3, §4, §5, §6, §7, §8, §9, §10, §11, §12
FIG. 8 illustrates a dose-response assay plate containing CFPAC-1 cells (Test 1) after testing compounds at different concentrations based on the IC50 values of each compound. CFPAC-1 is a cell line established from cystic fibrosis and pancreatic ductal adenocarcinoma.

[1] = TFK-1, Test 1, 0.25x IC50: dose Olaparib 4.5, Ex 1 3, combination both 1:1
[2] = TFK-1, Test 1, 0.5x IC50: dose Olaparib 9, Ex 1 6, combination both 1:1
[3] = TFK-1, Test 1, 1x IC50: dose Olaparib 18, combination both 1:1
[4] = TFK-1, Test 1, 2x IC50: dose Olaparib 36, Ex 1 24, combination both 1:1
[5] = TFK-1, Test 1, 4x IC50: dose Olaparib 72, Ex 1 48, combination both 1:1
[6] = TFK-1, Test 2, 0.25x IC50: dose Olaparib 4.5, Ex 1 3, combination both 1:1
[7] = TFK-1, Test 2, 0.5x IC50: dose Olaparib 9, Ex 1 6, combination both 1:1
[8] = TFK-1, Test 2, 1x IC50: dose Olaparib 18, combination both 1:1
[9] = TFK-1, Test 2, 2x IC50: dose Olaparib 36, Ex 1 24, combination both 1:1
[10] = TFK-1, Test 2, 4x IC50: dose Olaparib 72, Ex 1 48, combination both 1:1
[11] = Test 1, 0.25x IC50: dose Olaparib 9.7975, Ex 1 0,001929, combination both 1:1
[12] = Test 1, 0.5x IC50: dose Olaparib 19.535, Ex 1 0.003883, combination both 1:1
[13] = Test 1, 1x IC50: dose Olaparib 39.19, Ex 1 0,007577, combination both 1:1
[14] = Test 1, 2x IC50: dose Olaparib 78.38, Ex 1 0.015354, combination both 1:1
[15] = Test 1, 4x IC50: dose Olaparib 156.76, Ex 1 0.030707, combination both 1:1
[16] = Test 2, 0.25x IC50: dose Olaparib 9.7975, Ex 1 0.001929, combination both 1:1
[17] = Test 2, 0.5x IC50: dose Olaparib 13.595, Ex 1 0.003838, combination both 1:1
[18] = Test 2, 1x IC50: dose Olaparib 39.19, Ex 1 0.007677, combination both 1:1
[19] = Test 2, 2x IC50: dose Olaparib 78.38, Ex 1 0.015354, combination both 1:1
[20] = Test 2, 4x IC50: dose Olaparib 156.76, Ex 1 0.030707, combination both 1:1
[21] = CFPAC-1, Test 1, 0.25x IC50: dose Olaparib 1.5625, Ex 1 0.00675, combination both 1:1
[22] = CFPAC-1, Test 1, 0.5x IC50: dose Olaparib 3.125, Ex 1 0.0135, combination both 1:1
[23] = CFPAC-1, Test 1, 1x IC50: dose Olaparib 6.25, Ex 1 0.027, combination both 1:1
[24] = CFPAC-1, Test 1, 2x IC50: dose Olaparib 12.5, Ex 1 0.054, combination both 1:1
[25] = CFPAC-1, Test 1, 4x IC50: dose Olaparib 25, Ex 1 0.108, combination both 1:1
[26] = CFPAC-1, Test 2, 0.25x IC50: dose Olaparib 1.5625, Ex 1 0.00675, combination both 1:1
[27] = CFPAC-1, Test 2, 1x IC50: dose Olaparib 6.25, Ex 1 0.027, combination both 1:1
[28] = CFPAC-1, Test 2, 2x IC50: dose Olaparib 12.5, Ex 1 0.054, combination both 1:1
[29] = CFPAC-1, Test 2, 4x IC50: dose Olaparib 25, Ex 1 0.108, combination both 1:1

| IC50 (TFK-1 cells) | SMILES | Colony count (TFK-1 cells; [1]) | Colony count (TFK-1 cells; [2]) | Colony count (TFK-1 cells; [3]) | Colony count (TFK-1 cells; [4]) | Colony count (TFK-1 cells; [5]) | Colony count (TFK-1 cells; [6]) | Colony count (TFK-1 cells; [7]) | Colony count (TFK-1 cells; [8]) | Colony count (TFK-1 cells; [9]) | Colony count (TFK-1 cells; [10]) | Colony count (HPAF-II cells; [11]) | Colony count (HPAF-II cells; [12]) | Colony count (HPAF-II cells; [13]) | Colony count (HPAF-II cells; [14]) | Colony count (HPAF-II cells; [15]) | Colony count (HPAF-II cells; [16]) | Colony count (HPAF-II cells; [17]) | Colony count (HPAF-II cells; [18]) | Colony count (HPAF-II cells; [19]) | other results |
| --- | --- | --- | --- | --- | --- | --- | --- | --- | --- | --- | --- | --- | --- | --- | --- | --- | --- | --- | --- | --- | --- |
| 12 µM | Cn1c(=O)c2c(ncn2CC(=O)Nc2ccc(-c3ccccc3)nn2)n(C)c1=O [Ex 1, 2-(1,3-dimethyl-2,6-dioxo-2,3-dihydro-1H-purin-7 (6H)-yl)-N-(6-phenylpyridazin-3-yl)acetamide] | 921 and 950 | 805 and 700 | 557 and 581 | 402 and 384 | 239 and 198 | 916 and 840 | 770 and 818 | 567 and 559 | 336 and 249 | 101 and 148 | 564 and 493 | 499 and 416 | 387 and 453 | 362 and 345 | 260 and 201 | 350 and 489 | 415 and 426 | 296 | 200 and 150 | IC50 (HPAF-II cells; HPAF-II cells, pre-determined by dose-response assay): 0.0077 µM; Colony count (HPAF-II cells; [20]): 127 and 105; Colony count (CFPAC-1 cells; [21]): 441 and 464; Colony count (CFPAC-1 cells; [22]): 445 and 505; Colony count (CFPAC-1 cells; [23]): 386 and 412; Colony count (CFPAC-1 cells; [24]): 346 and 322; Colony count (CFPAC-1 cells; [25]): 315 and 320; Colony count (CFPAC-1 cells; [26]): 676 and 624; Colony count (CFPAC-1 cells; [27]): 649 and 563; Colony count (CFPAC-1 cells; [28]): 581 and 588; Colony count (CFPAC-1 cells; [29]): 536 and 527; IC50 (CFPAC-1 cells): 0.027 µM |
| 18 µM | O=C(c1cc(Cc2n[nH]c(=O)c3ccccc23)ccc1F)N1CCN(C(=O)C2CC2)CC1 [Olaparib, reference compound] | 759 and 668 | 674 and 531 | 381 and 437 | 270 and 204 | 96 and 75 | 737 and 676 | 698 and 621 | 447 and 437 | 267 and 213 | 148 and 75 | 522 and 507 | 498 and 471 | 381 and 427 | 313 and 244 | 237 and 206 | 550 and 426 | 443 and 375 | 278 and 248 | 239 and 172 | Colony count (HPAF-II cells; [20]): 142 and 92; Colony count (CFPAC-1 cells; [21]): 441 and 429; Colony count (CFPAC-1 cells; [22]): 314 and 309; Colony count (CFPAC-1 cells; [23]): 259 and 289; Colony count (CFPAC-1 cells; [24]): 194 and 196; Colony count (CFPAC-1 cells; [25]): 80 and 97; Colony count (CFPAC-1 cells; [26]): 586 and 545; Colony count (CFPAC-1 cells; CFPAC-1, Test 2, 0.5x IC50: dose Olaparib 3.125, Ex 1 0.0135, combination both 1:1): 439 and 442; Colony count (CFPAC-1 cells; [27]): 328 and 371; Colony count (CFPAC-1 cells; [28]): 254 and 255; Colony count (CFPAC-1 cells; [29]): 116 and 111; IC50 (CFPAC-1 cells; Homo sapiens): 6.25 µM |
